Literature values in paper PMC6270026, “Antibacterial and Herbicidal Activity of Ring-Substituted 2-Hydroxynaphthalene-1-carboxanilides” (Molecules, 2013).
Converted amounts (≈) assume the structure as drawn.

Legend:
[1] = design: method as in PMID 23884130; details: 3-hydroxynaphthalene-2-carboxanilide series; cited from earlier work
[2] = tested on: Staphylococcus aureus ATCC 29213; design: method as in PMID 23884130; details: previous study; cited from earlier work
[3] = tested on: methicillin-resistant Staphylococcus aureus (MRSA) 63718; design: method as in PMID 23884130; details: previous study, all the MRSA strains; cited from earlier work
[4] = tested on: methicillin-resistant Staphylococcus aureus SA 630; design: method as in PMID 23884130; details: previous study, all the MRSA strains; cited from earlier work
[5] = tested on: methicillin-resistant Staphylococcus aureus SA 3202; design: method as in PMID 23884130; details: previous study, all the MRSA strains; cited from earlier work
[6] = tested on: human monocytic leukemia THP-1 cells; details: assessed in this line formerly; cited from earlier work

SMILES	log k [1]	MIC against S. aureus [2] [µM]	MIC against MRSA strains (MRSA 63718) [3] [µM]	MIC against MRSA strains (SA 630) [4] [µM]	MIC against MRSA strains (SA 3202) [5] [µM]	LD50 [6] [µmol/L]
COc1ccccc1NC(=O)c1cc2ccccc2cc1O [3-hydroxy-N-(2-methoxyphenyl)naphthalene-2-carboxamide]	0.69	55.0 (≈ 16.1 µg/mL)	55.0 (≈ 16.1 µg/mL)	55.0 (≈ 16.1 µg/mL)	55.0 (≈ 16.1 µg/mL)	
CC[C@@]1(O)C(=O)OCc2c1cc1n(c2=O)Cc2cc3ccccc3nc2-1 [camptothecin]						0.16 ± 0.07
